Entries after “also recorded” stand apart in the source; their conditions may differ.
Key:
[1] = Pharmacokinetics of rivaroxaban in rats, alone and with palbociclib; type: in vivo, Sprague-Dawley rats
BCRP (Abcg2) = experiment: qRT-PCR mRNA expression in rat liver and intestine after palbociclib for 8 days; type: in vivo; conditions: palbociclib for eight consecutive days vs blank control
P-gp (Abcb1a) = experiment: as above; type: in vivo; conditions: palbociclib for eight consecutive days vs blank control
[2] = Pharmacokinetics of palbociclib in rats, alone and with apixaban or rivaroxaban; type: in vivo, Sprague-Dawley rats
[3] = Pharmacokinetics of apixaban in rats, alone and with palbociclib; type: in vivo, Sprague-Dawley rats
[4] = SD rats, oral, rivaroxaban 2 mg/kg alone, geometric mean (GSD) (geometric CV%)
[5] = male, Sprague-Dawley, rat, plasma, po, 2 mg/kg
[6] = rivaroxaban 1 mg/kg + multiple doses of palbociclib compared with rivaroxaban 2 mg/kg, rats
[7] = palbociclib co-administered with apixaban vs palbociclib alone, rats
[8] = palbociclib co-administered with rivaroxaban vs palbociclib alone, rats
[9] = apixaban 0.25 mg/kg alongside palbociclib, rats, no statistical significance
[10] = apixaban 0.5 mg/kg with simultaneous palbociclib vs apixaban-only group, rats
[11] = apixaban 0.5 mg/kg with simultaneous palbociclib vs control group, rats

**Q.** With `O=C(NC[C@H]1CN(c2ccc(N3CCOCC3=O)cc2)C(=O)O1)c1ccc(Cl)s1` [Rivaroxaban, rivaroxaban] as the compound, how does the CLz [1, 4] read?
**A.** 0.69(GSD 1.20) (65.6%) L/h/kg

**Q.** And the Vz [1, 4]?
**A.** 2.13(GSD 1.55) (118.4%) L/kg

**Q.** What about the MRT inf [1, 5] of the same compound?
**A.** 3.67 h

**Q.** And the MRT last [1, 5]?
**A.** 3.32 h

**Q.** And the AUC(0-t) ([1]; male, Sprague-Dawley, rat, plasma, po, 2 mg/kg, AUC0-t, SD rats, rivaroxaban 2 mg/kg alone, geometric mean (GSD) (geometric CV%))?
**A.** 691 ng·h/mL

**Q.** What about the AUC(0-inf) ([1]; male, Sprague-Dawley, rat, plasma, po, 2 mg/kg, AUC0-∞, SD rats, rivaroxaban 2 mg/kg alone, geometric mean (GSD) (geometric CV%)) of the same compound?
**A.** 722 ng·h/mL

**Q.** What about the Tmax ([1]; male, Sprague-Dawley, rat, plasma, po, 2 mg/kg, Tmax, SD rats, rivaroxaban 2 mg/kg alone, geometric mean (GSD) (geometric CV%)) of the same compound?
**A.** 1.02 h

**Q.** What about the “decrease in MRT0-t of rivaroxaban” value [1, 6] of the same compound?
**A.** 27.82%

**Q.** What about the “decrease in MRT0-∞ of rivaroxaban” value [1, 6] of the same compound?
**A.** 35.43%

**Q.** And the “decrease in apparent volume of distribution Vz/F of rivaroxaban” value [1, 6]?
**A.** 77.46%

**Q.** And the “decrease in clearance CLz/F of rivaroxaban” value [1, 6]?
**A.** 60.87%

**Q.** What about the “differences for Tmax and t1/2 of rivaroxaban” value [1, 6] of the same compound?
**A.** no significant differences

**Q.** And the “increase in AUC0-t of rivaroxaban” value [1, 6]?
**A.** 161.86%

**Q.** And the “increase in AUC0-∞ of rivaroxaban” value [1, 6]?
**A.** 150.93%

**Q.** What about the “increase in Cmax of rivaroxaban” value [1, 6] of the same compound?
**A.** 243.63%

**Q.** And the “effect on pharmacokinetic parameters of rivaroxaban” value ([1]; rivaroxaban and palbociclib given 12 hours apart, rats)?
**A.** no significant pharmacokinetic changes; also recorded: not affected

**Q.** With `CC(=O)c1c(C)c2cnc(Nc3ccc(N4CCNCC4)cn3)nc2n(C2CCCC2)c1=O` [Palbociclib, palbociclib] as the compound, how does the “effect on BCRP mRNA expression” value (BCRP (Abcg2); intestine) read?
**A.** no significant inhibition

**Q.** And the “decrease of BCRP mRNA expression” value (BCRP (Abcg2); liver)?
**A.** 31.66%

**Q.** What about the “downregulation of P-gp mRNA expression” value (P-gp (Abcb1a); intestine) of the same compound?
**A.** 20.17%

**Q.** And the “effect on P-gp mRNA expression” value (P-gp (Abcb1a); liver)?
**A.** no significant effect

**Q.** What about the AUC(0-t) ([2]; male, Sprague-Dawley, rat, plasma, po, 11 mg/kg, AUC0-t, SD rats, palbociclib 11 mg/kg alone, geometric mean (GSD) (geometric CV%)) of the same compound?
**A.** 4340 ng·h/mL

**Q.** And the AUC(0-inf) ([2]; male, Sprague-Dawley, rat, plasma, po, 11 mg/kg, AUC0-∞, SD rats, palbociclib 11 mg/kg alone, geometric mean (GSD) (geometric CV%))?
**A.** 4350 ng·h/mL

**Q.** What about the Cmax ([2]; male, Sprague-Dawley, rat, plasma, po, 11 mg/kg, Cmax, SD rats, palbociclib 11 mg/kg alone, geometric mean (GSD) (geometric CV%)) of the same compound?
**A.** 469 ng/mL

**Q.** And the MRT last ([2]; male, Sprague-Dawley, rat, plasma, po, 11 mg/kg, MRT0-t, SD rats, palbociclib 11 mg/kg alone, geometric mean (GSD) (geometric CV%))?
**A.** 7.33 h

**Q.** And the MRT inf ([2]; male, Sprague-Dawley, rat, plasma, po, 11 mg/kg, MRT0-∞, SD rats, palbociclib 11 mg/kg alone, geometric mean (GSD) (geometric CV%))?
**A.** 7.39 h

**Q.** And the Tmax ([2]; male, Sprague-Dawley, rat, plasma, po, 11 mg/kg, Tmax, SD rats, palbociclib 11 mg/kg alone, geometric mean (GSD) (geometric CV%))?
**A.** 2.83 h

**Q.** And the half-life ([2]; male, Sprague-Dawley, rat, plasma, po, 11 mg/kg, t1/2, SD rats, palbociclib 11 mg/kg alone, geometric mean (GSD) (geometric CV%))?
**A.** 3.99 h

**Q.** What about the “increase in AUC0-t of palbociclib” value [2, 7] of the same compound?
**A.** 24.75%

**Q.** And the “increase in AUC0-∞ of palbociclib” value [2, 7]?
**A.** 24.83%

**Q.** And the “increase in Cmax of palbociclib” value [2, 7]?
**A.** 49.30%

**Q.** What about the “increase in AUC0-t of palbociclib” value [2, 8] of the same compound?
**A.** 32.94%

**Q.** And the “increase in AUC0-∞ of palbociclib” value [2, 8]?
**A.** 33.13%

**Q.** For `COc1ccc(-n2nc(C(N)=O)c3c2C(=O)N(c2ccc(N4CCCCC4=O)cc2)CC3)cc1` [Apixaban, apixaban], which CLz ([3]; SD rats, oral, apixaban 0.5 mg/kg alone, geometric mean (GSD) (geometric CV%)) is on record?
**A.** 0.86(GSD 1.49) (110.3%) L/h/kg

**Q.** And the “differences for CLz/F, Tmax, t1/2, Vz/F, MRT0-t and MRT0-∞ of apixaban” value ([3]; apixaban 0.25 mg/kg alongside palbociclib, rats)?
**A.** no significant differences

**Q.** And the “increase in AUC0-t of apixaban” value [3, 9]?
**A.** 43.35%

**Q.** And the “increase in AUC0-∞ of apixaban” value [3, 9]?
**A.** 43.49%

**Q.** And the “increase in Cmax of apixaban” value [3, 9]?
**A.** 45.03%

**Q.** And the “increase in AUC0-t of apixaban” value [3, 10]?
**A.** 258.36%

**Q.** What about the “increase in AUC0-∞ of apixaban” value [3, 10] of the same compound?
**A.** 256.64%

**Q.** And the “increase in Cmax of apixaban” value [3, 10]?
**A.** 243.61%

**Q.** And the “decrease in apparent volume of distribution Vz/F of apixaban” value [3, 11]?
**A.** 73.73%

**Q.** What about the “decrease in clearance CLz/F of apixaban” value [3, 11] of the same compound?
**A.** 72.53%

**Q.** And the “effect on pharmacokinetic parameters of apixaban” value ([3]; apixaban and palbociclib given 12 hours apart, rats)?
**A.** no significant pharmacokinetic changes; also recorded: not affected

**Q.** And the AUC(0-t) ([3]; male, Sprague-Dawley, rat, plasma, po, 0.5 mg/kg, AUC0-t, SD rats, apixaban 0.5 mg/kg alone, geometric mean (GSD) (geometric CV%))?
**A.** 579 ng·h/mL

**Q.** And the AUC(0-inf) ([3]; male, Sprague-Dawley, rat, plasma, po, 0.5 mg/kg, AUC0-∞, SD rats, apixaban 0.5 mg/kg alone, geometric mean (GSD) (geometric CV%))?
**A.** 583 ng·h/mL

**Q.** What about the Cmax ([3]; male, Sprague-Dawley, rat, plasma, po, 0.5 mg/kg, Cmax, SD rats, apixaban 0.5 mg/kg alone, geometric mean (GSD) (geometric CV%)) of the same compound?
**A.** 243 ng/mL

**Q.** What about the MRT last ([3]; male, Sprague-Dawley, rat, plasma, po, 0.5 mg/kg, MRT0-t, SD rats, apixaban 0.5 mg/kg alone, geometric mean (GSD) (geometric CV%)) of the same compound?
**A.** 1.83 h

**Q.** What about the MRT inf ([3]; male, Sprague-Dawley, rat, plasma, po, 0.5 mg/kg, MRT0-∞, SD rats, apixaban 0.5 mg/kg alone, geometric mean (GSD) (geometric CV%)) of the same compound?
**A.** 1.92 h

**Q.** And the Tmax ([3]; male, Sprague-Dawley, rat, plasma, po, 0.5 mg/kg, Tmax, SD rats, apixaban 0.5 mg/kg alone, geometric mean (GSD) (geometric CV%))?
**A.** 0.53 h

Source: publication PMC12396240 (Drug Design, Development and Therapy, 2025)
